Laboratory results reported in BindingDB's records for doi:10.7270/Q25B013C (The Scripps Research Institute Molecular Screening Center, 2014).

The compounds below were run against T1, Disintegrin and metalloproteinase domain-containing protein 10 (Homo sapiens, UniProt O14672) (assay: ADAM10 protease inhibitors, dose response, selectivity assay for ADAM17 exosite inhibitor project, biochemical, FRET peptide substrate, recombinant human ADAM10 (AID 743259)).
T1 sequence (O14672 whole entry): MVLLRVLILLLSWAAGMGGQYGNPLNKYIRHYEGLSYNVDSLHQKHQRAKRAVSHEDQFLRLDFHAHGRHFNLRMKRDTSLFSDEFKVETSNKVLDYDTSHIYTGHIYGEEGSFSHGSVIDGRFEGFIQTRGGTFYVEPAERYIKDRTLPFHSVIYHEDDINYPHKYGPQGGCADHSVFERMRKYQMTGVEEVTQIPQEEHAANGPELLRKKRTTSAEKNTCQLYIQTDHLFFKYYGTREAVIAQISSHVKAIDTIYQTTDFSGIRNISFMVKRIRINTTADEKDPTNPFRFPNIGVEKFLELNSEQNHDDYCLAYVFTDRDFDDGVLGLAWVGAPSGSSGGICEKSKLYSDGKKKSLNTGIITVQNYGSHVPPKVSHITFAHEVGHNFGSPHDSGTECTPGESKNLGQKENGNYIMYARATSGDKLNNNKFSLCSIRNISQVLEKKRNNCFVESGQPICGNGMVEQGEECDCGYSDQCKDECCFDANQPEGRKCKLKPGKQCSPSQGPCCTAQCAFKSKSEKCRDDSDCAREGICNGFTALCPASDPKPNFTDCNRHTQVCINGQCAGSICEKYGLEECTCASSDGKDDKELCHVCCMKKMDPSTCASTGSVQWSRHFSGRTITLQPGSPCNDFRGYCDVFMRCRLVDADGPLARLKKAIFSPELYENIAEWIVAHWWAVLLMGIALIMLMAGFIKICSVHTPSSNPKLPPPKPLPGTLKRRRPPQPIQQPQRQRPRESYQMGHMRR

In order of falling IC50:
1. COc1cccc(C2c3oc(CO)cc(=O)c3OC(=N)C2C#N)c1 (configuration not stated) [2-Amino-6-hydroxymethyl-4-(3-methoxy-phenyl)-8-oxo-4,8-dihydro-pyrano[3,2-b]pyran-3-carbonitrile]  69.5 µM
2. COc1ccc(NC(=O)c2oc3ccccc3c2NC(=O)C(C)(C)C)cc1 [3-(2,2-dimethylpropanoylamino)-N-(4-methoxyphenyl)-1-benzofuran-2-carboxamide]  69.5 µM
3. Cc1cccc(NNC2=c3cc(Br)ccc3=NC2=O)c1 [5-bromo-3-[2-(3-methylphenyl)hydrazinyl]indol-2-one]  69.5 µM
4. O=C1OCCN1C(=O)C1=[N+](c2ccc(Br)cc2)N[C-](c2ccccc2)[C@H]1c1ccc([N+](=O)[O-])cc1 [SMR000327268]  69.5 µM
5. COC(=O)c1cccc(Cn2c(Cl)c(CN=Nc3ccccc3C)sc2=O)c1 [methyl 3-[[4-chloro-5-[[(2-methylphenyl)hydrazinylidene]methyl]-2-oxo-1,3-thiazol-3-yl]methyl]benzoate]  69.5 µM
6. O=C(Cc1sc(=O)n(-c2ccccc2)c1O)Nc1ccccc1 [2-(2,4-diketo-3-phenyl-thiazolidin-5-yl)-N-phenyl-acetamide]  47.8 µM
7. CCOc1ccc(NC(=O)Cc2sc(=O)n(-c3ccccc3)c2O)cc1  37.7 µM
8. CC(=NNC(=N)Sc1cc(O)n(-c2ccc(Br)cc2)c1O)c1cccs1 [[1-(4-bromophenyl)-2,5-bis(oxidanylidene)pyrrolidin-3-yl] N''-(1-thiophen-2-ylethylideneamino)carbamimidothioate]  32.5 µM
9. CC1CCCN(CCCNC(=O)c2coc3nc4ccccc4nc23)C1 (configuration not stated) [MLS000046706]  28.5 µM
10. Cn1c(-c2sccc2OCc2ccc(Cl)cc2Cl)n[nH]c1=S  11.1 µM
11. CC(=NNC(=N)Sc1cc(O)n(-c2ccccc2)c1O)c1cccs1 [[2,5-bis(oxidanylidene)-1-phenyl-pyrrolidin-3-yl] N'-[(E)-1-thiophen-2-ylethylideneamino]carbamimidothioate]  9.95 µM
12. CCOc1cc(C(c2c(C)[nH][nH]c2=O)c2c(C)[nH][nH]c2=O)ccc1O [4-[(3-ethoxy-4-hydroxyphenyl)-(3-methyl-5-oxo-1,2-dihydropyrazol-4-yl)methyl]-5-methyl-1,2-dihydropyrazol-3-one]  2.58 µM
